Here are results for three compounds from patent US9402821B2, “Methods and pharmaceutical compositions for treatment of cystic fibrosis” (INSERM (Institut National de la sante et de la Recherche …, priority 2012, dated 2016).

One assay concerns cyclooxygenase. To be noted: cited from earlier work.
For a further assay, the system named is IL-8 production. To be noted: CF cells; recent study [5]; cited from earlier work.
Another assay concerns the target CFTR (Homo sapiens, UniProt P13569). Nature of the assay: CFTR maturation by Western blot of membrane extracts. It counts as cell-based. Details: expressed in transfected cells. To be noted: 500 μM. On the procedure: B. Chloride activity in HeLa Wt cells was measured by MQAE assay, after 3 h of treatment by NSAID (500 μM) or diluent. CFTR activity was expressed in rate of UFA/sec, calculated by difference between ((Ft−F0)/t) with CFTR induction and ((Ft−F0)/t) without CFTR induction. […] C. Primary culture of human nasal epithelial cell (HNEC) grown on Snapwell filters (air-liquid interface) were exposed basolaterally to sulindac (500 μM) or vehicle for 2 h and immediately mounted into a voltage-clamp system to bioelectric measurements. Short circuit current was measured with addition of amiloride to evaluated amiloride sensitive transport or with forskolin and IBMX for induced cAMP-dependent Cl secretion.
To study the CFTR protein present at the cell membrane, a protocol of purification by differential centrifugations was used. CFTR wt and delta F508 HeLa cells (2×10^5 cells/cm^2) were lysed with hypotonic lysis buffer (10 mM de KCl, 1 mM de MgCl2, 10 mM Hepes pH 7, 4 and protease inhibitor). Mechanic lysis of cells was realized with minimum 10 strokes of a 26G syringe. Samples were centrifuged 10 min at 3000 g to eliminate cellular fragments and nuclear fraction in the pellet. Then supernatant was centrifuged 45 min at 50 000 g. The pellets with cellular membrane were resolubilized in RIPA buffer.
Aliquots of membrane cell extracts (30 μg protein) were separated by 7% SDS-PAGE and transferred on PVDF membrane. The western blots were probed with mouse monoclonal antibodies specific for CFTR (MM13-4, Millipore) 2 h at room temperature.
In general terms: Immunoblotting shows a protein as a band on a membrane.

In assay [1] the test system is NF-κB transcriptional activity. To be noted: CF cells; recent study [5]; cited from earlier work.
For assay [2], the system named is NF-κB transcriptional activity. In words: NF-κB firefly luciferase reporter assay, TNFα-stimulated cells. It counts as cell-based. To be noted: TNFα 10 ng/ml. As to the method:
All cells were transiently transfected by NF-κB firefly luciferase reporter and renilla luciferase reference. A. HeLa control cells (Ctr) were pre-treated with diluent (0.5%) or different doses of sulindac for 1 h and stimulated for 1 h with 10 ng/ml TNFα. After removal of TNFα, cells were incubated for 4 h with sulindac. Luciferase activity was analysed in protein extract. The NF-κB transcriptional activity in cells treated with sulindac+TNFα was expressed in percent of diluent+TNFα. B. Hela cells Wt, DF508 and Ctr were pre-treated with diluent (0.5%), ibuprofen (500 μM) or sulindac (500 μM) for 1 h and stimulated for 1 h with […] TNFα. After removal of TNFα, cells were incubated for 4 h with pharmacological treatment. The NF-κB transcriptional activity in cells treated with ibuprofen+TNFα and sulindac+TNFα was expressed in percent of diluent+TNFα. Results of at least three independent experiments, means±SEM. Unilateral paired t test: * p<0.02
All cells were pre-treated with diluent (0.5%), sulindac ([…]) or sulindac sulfone (250 μM) for 1 h and stimulated for 1 h with 10 ng/ml TNFα. […]
Plasmid Constructs and Transient Transfection To assay the transcriptional activity of NF-κB, pNF-κBLuc, a luciferase reporter plasmid containing five sequential NF-κB binding sites upstream of a minimum promoter element, NF-κB-Luc (Stratagene), was used. Transcriptional activity of the IL-8 promoter was evaluated with reporter constructs consisting of the IL-8 promoter (−133 bp from the transcription start site) fused to the Luciferase gene, kindly provided by Naofumi Mukaida. […]
(§1) Cells were lysed with the Passive Lysis Buffer (Promega), and luciferase activity in the cellular extracts was determined by the Dual Luciferase Assay System (Promega) using a luminometer (Tristar; Berthold). The results were normalized to those obtained with the Renilla luciferase reference plasmid used to control the transfection efficiency, and the values were expressed as luminescence intensity (Luciferase/Renilla). […]
The transcriptional activity of NF-κB and IL-8 promoter was measured as described before. […]
(In a reporter assay the amount or activity of a reporter protein is the signal.)

Another assay concerns IL-8 promoter. Nature of the assay: IL-8 promoter luciferase reporter / IL-8 mRNA qPCR, TNFα-stimulated cells. To be noted: 250 μM; TNFα 10 ng/ml; HeLa CFTR wt and CFTR DF508 (FIG. 8B). It counts as cell-based. As to the method: Cells were transiently transfected by the short IL-8 promoter-firefly luciferase reporter and renilla luciferase reference and inflammation was induced by 10 ng/ml TNFα for 1 h. A. HeLa cells were pre-treated with diluent or different doses of sulindac 1 h before inflammation induction and 4 h after. IL-8 promoter activity in cells treated with sulindac+TNFα was expressed in percent of diluent+TNFα. B. After treatment, HeLa Ctr cells were lysed with TRIzol (Invitrogen). Total RNA was extracted, and 1 μg of total RNA was reverse transcribed with a reverse transcription kit. IL-8 mRNA expression was quantified by real-time quantitative PCR (qPCR). The comparative threshold cycle (CT) method was used for relative quantification of PCR products after IL-8 was normalised to TBP (ΔCt=CtIL-8−CtTBP). […] C After treatment, IL-8 in supernatant was measured by ELISA. The IL-8 stimulation of cells treated with test drug +TNFα were expressed as fold compared to drug −TNFα. […]
as §1

Entries after “also recorded” stand apart in the source; their conditions may differ. Read-outs that look alike come from different tables or passages of the source.

CFTR, sequence (P13569 whole entry): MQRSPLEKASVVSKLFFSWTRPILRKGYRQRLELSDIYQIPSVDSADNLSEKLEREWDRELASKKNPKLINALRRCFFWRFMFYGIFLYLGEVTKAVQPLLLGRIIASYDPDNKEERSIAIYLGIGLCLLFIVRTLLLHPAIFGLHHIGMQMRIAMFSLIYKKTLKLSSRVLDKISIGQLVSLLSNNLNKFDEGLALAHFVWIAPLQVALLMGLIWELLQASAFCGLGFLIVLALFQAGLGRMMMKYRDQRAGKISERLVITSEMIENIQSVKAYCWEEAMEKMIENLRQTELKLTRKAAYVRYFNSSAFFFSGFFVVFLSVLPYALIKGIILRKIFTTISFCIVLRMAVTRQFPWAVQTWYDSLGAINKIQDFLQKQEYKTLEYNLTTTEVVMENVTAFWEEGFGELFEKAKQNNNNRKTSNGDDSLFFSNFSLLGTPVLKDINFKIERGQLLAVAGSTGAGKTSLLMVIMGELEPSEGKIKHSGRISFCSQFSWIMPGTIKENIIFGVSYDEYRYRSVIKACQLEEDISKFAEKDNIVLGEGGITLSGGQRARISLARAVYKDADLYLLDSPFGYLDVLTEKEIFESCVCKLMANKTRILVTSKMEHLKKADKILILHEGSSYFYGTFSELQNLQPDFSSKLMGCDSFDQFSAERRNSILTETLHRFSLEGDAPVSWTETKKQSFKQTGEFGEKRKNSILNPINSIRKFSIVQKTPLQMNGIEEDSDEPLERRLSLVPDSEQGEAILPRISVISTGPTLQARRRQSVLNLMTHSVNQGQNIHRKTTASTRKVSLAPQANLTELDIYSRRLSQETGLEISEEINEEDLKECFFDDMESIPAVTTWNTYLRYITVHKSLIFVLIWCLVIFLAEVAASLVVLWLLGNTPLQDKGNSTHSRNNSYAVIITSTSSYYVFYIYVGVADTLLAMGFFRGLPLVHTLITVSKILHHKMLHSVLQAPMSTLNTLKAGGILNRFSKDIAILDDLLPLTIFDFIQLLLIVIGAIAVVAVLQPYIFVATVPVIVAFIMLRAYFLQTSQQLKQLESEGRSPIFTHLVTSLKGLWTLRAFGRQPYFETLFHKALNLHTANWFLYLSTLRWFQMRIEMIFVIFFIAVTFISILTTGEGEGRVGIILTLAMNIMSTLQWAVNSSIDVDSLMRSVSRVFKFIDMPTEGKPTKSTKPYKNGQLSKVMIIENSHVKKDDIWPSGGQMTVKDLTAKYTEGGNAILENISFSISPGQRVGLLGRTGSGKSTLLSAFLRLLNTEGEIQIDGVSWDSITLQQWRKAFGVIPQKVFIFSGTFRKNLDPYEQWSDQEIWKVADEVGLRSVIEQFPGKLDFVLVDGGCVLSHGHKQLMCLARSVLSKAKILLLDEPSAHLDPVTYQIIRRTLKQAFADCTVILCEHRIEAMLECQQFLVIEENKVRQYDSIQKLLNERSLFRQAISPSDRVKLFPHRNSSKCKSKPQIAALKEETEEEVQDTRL

As for `CSc1ccc(/C=C2/C(C)=C(CC(=O)O)c3cc(F)ccc32)cc1` [sulindac sulfide], the inhibition of cyclooxygenase entry in the assay with cyclooxygenase was “inhibits cyclooxygenase activity”.
For the compound `CC(C)Cc1ccc(C(C)C(=O)O)cc1` (stereo not drawn) [ibuprofen], the IL-8 production result in the assay on IL-8 production was “not accompanied by a decreased of IL-8 production”. In addition, the “Ratio CFTR C/C + B (%)” value on CFTR (HeLa CFTR WT, Ctr. 65.1) is 80.6%. Besides, at CFTR (WT-CFTR HeLa cells), the “mature form of CFTR (Western blot)” value is recorded as “significant increase of mature form of CFTR”. In addition, the “transcriptional activity of NF-κB” value is on record as “inhibits the transcriptional activity of NF-κB” in assay [1]; “inhibits transcriptional activity of NF-κB similar to ibuprofen” in assay [2] (BEAS-2B and HeLa cells with wt or deltaF508-CFTR (FIGS. 1A, B)).
As to `C=S(C)(=O)c1ccc(/C=C2/C(C)=C(CC(=O)O)c3cc(F)ccc32)cc1` (stereo not drawn) [sulindac sulfone], in assay [2] (250 μM, HeLa CFTR wt and CFTR DF508 (FIG. 8A)), the NF-κB transcriptional activity entry is given as “inhibits the transcriptional activity of NF-κB”. Further, the inhibition of cyclooxygenase entry in the assay on cyclooxygenase is “inactif on COX; also recorded: does not inhibit cyclooxygenase”. In addition, the IL-8 promoter activity entry with IL-8 promoter was “at least as effective as sulindac; also recorded: inhibits”.
